# Patent US4894219A, “Beta-agonist carbostyril derivatives, assay method and pharmacological composition” (University of Florida, priority 1988, dated 1990)
# Like-named read-outs stand apart in the source and are kept apart here.
# How the values were obtained:
# ornithine decarboxylase = experiment: Induction of ornithine decarboxylase activity in the rat lung; assay type: in vivo; conditions: for Fold increase of ornithine decarboxylase activity over the basal level / Ornithine decarboxylase activity: rat lung
# adenylate cyclase [1] = experiment: Time course of cAMP production in rat reticulocytes with propranolol addition (FIG. 3); assay type: biochemical; conditions: for cAMP production after propranolol added during incubation: propranolol added after 9 min ((-)isoproterenol) or 7 min (structure 13); for cAMP production, linearity with time: without propranolol; for irreversible binding and response at the beta-adrenergic receptor: conclusion from FIG. 3 and binding data
# Method: (§1) Biochemical Methods. Adenylate Cyclase Activity. Rat reticulocytes were induced and membranes prepared as described by Baker et al, J. Biol. Chem., Vol. 260, p. 15820 (1985). […] These are the basal conditions. When stimulation of activity was measured, the assay also contained 0.5 mM GTP and varying concentrations of (-)-isoproterenol or the carbostyril derivatives. At the end of the incubation, 0.3 ml of 10 mM Tris.HCl buffer at pH 7.0 containing 5 mM EDTA was added to each tube and the tubes were placed in a boiling water bath for 5 min. After cooling to room temperature, the tubes were centrifuged for 5 min at 10000 g and the supernatant saved. The cAMP content of the supernatant was determined by a competitive protein binding assay. The amount of cAMP present was calculated from a standard curve determined with unlabeled cAMP. Enzyme activity was linear with time and protein through 10 min and 0.1 mg, respectively. Basal and GTP-stimulated activity values were substracted from the values obtained in the presence of ligands and the concentration of ligands that produced half-maximal activity (EC50) were determined by using a dose-effect analysis with an Apple IIe computer. Membrane protein content was determined by the Lowry method with bovine serum albumin as standard.
# adenylate cyclase [2] = experiment: Stimulation of adenylate cyclase activity in rat reticulocyte membranes; assay type: biochemical; conditions: for Intrinsic Activity, adenylate cyclase: as compared to (-)isoproterenol which was set to 1.0, 10 min; for EC50: rat reticulocyte membranes, mean ±SE, n = 3-6, read-out: EC50 (concentration that produced half-maximal enzyme activation), adenylate cyclase; for intrinsic activity (efficacy) in words: compared with (-)isoproterenol
# Method: as §1, with “p.” for “p. 15820 (1985).”, “When stimulation of activity was measured, the assay also contained 0.5 mM GTP and varying concentrations of (-)-isoproterenol or the carbostyril derivatives.” left out, “Enzyme activity was linear with time and protein through 10 min and 0.1 mg, respectively.” left out
# beta-adrenergic receptor [3] = molecular target: T1, beta-adrenergic receptor (Rattus norvegicus, UniProt P10608); experiment: [^125 I]iodocyanopindolol (CYP) competition binding to the beta-adrenergic receptor in rat reticulocyte membranes
# Method: β-Adrenergic Receptor Binding. […] At the end of the incubation, the suspensions were diluted with 4 ml of ice-cold incubation buffer and poured onto Whatman GF/B glass fiber filters under reduced pressure. Each filter was washed with a further 8 ml of ice-cold buffer, placed in a scintillation vial, and counted. Specific binding to the receptor was calculated as the difference between total binding determined in the absence of alprenolol and the nonspecific binding determined in the presence of alprenolol. […] All data was statistically analyzed by using a one-way analysis of variance (ANOVA).
# beta-adrenergic receptor [4] = molecular target: T1, beta-adrenergic receptor; experiment: Washout experiment: irreversible binding after membrane pretreatment with compound 13; design: membranes prepared from rat reticulocytes; from tissue; host or cells: rat reticulocytes (blood cells), membranes; endogenous receptor
# Method: In the pretreatment experiments, reticulocyte membrane protein (3 mg/ml) was incubated in 50 mM Tris·HCl buffer at pH 7.4, containing 5 mM MgCl2 without and with 20 nM compound 13 for 30 min at 32° C. A parallel incubation was also performed containing 20 nM compound 13 plus 10 μM nadolol. At the end of the incubation the tubes were filled (30 ml) with ice-cold incubation buffer and centrifuged at 48000 g for 15 min. The pellets were washed three more times by centrifugation and resuspension and the final pellets were resuspended in 1 ml of incubation buffer for assay. The membrane content of β-adrenergic receptors was determined with (-)-^125 I]-iodocyanopindolol (10-100 pM) as described above. The binding maximums and dissociation constants (KD) were determined from linear regression analysis of Scatchard plots.
# Irreversible binding of compound (13) to the reticulocyte β-adrenergicreceptor was indicated by washout experiments.
# [5] = test system: beta-adrenergic receptors; experiment: Loss of beta-adrenergic receptors in rat tissues after i.p. injection; assay type: in vivo; conditions: for Specific Ligand Binding / % reduction of receptors from controls: 3 hr; for beta-2-receptor selectivity in vivo: receptor loss in rat tissues
# Method: Rats were injected i.p. with either 2 or 5 mg/kg of structure (13) and 3 hr. later, the tissues were removed and assayed for the beta-adrenergic receptor content.
# beta-2 = conditions: Yoshizaki et al, J. Med. Chem. 1977; cited from earlier work
# [6] = 0.1 mg/kg i.p., 3 hours, basal 1.9 + 0.4
# [7] = 0.1 mg/kg plus propranolol (5 mg/kg, 30 min before)
# [8] = listed as structure wherein X is NHCOCH2 Br
# T1 sequence (P10608 whole entry): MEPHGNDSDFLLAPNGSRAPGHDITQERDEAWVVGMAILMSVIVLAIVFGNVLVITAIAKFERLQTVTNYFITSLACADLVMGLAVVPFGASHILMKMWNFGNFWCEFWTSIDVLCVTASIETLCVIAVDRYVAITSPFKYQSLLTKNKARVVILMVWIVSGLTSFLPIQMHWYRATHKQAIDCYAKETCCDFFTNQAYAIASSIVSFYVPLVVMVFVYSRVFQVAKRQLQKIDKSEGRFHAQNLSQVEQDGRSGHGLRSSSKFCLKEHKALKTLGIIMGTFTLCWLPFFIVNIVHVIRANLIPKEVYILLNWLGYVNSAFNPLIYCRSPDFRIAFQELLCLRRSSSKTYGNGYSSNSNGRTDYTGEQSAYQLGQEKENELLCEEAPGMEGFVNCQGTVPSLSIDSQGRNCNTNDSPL
compound,measurement,setting,value
(-)isoproterenol [reference compound],Fold increase of ornithine decarboxylase activity over the basal level,"ornithine decarboxylase; 0.1 mg/kg i.p., 3 hours",6.5 fold
same,Ornithine decarboxylase activity,ornithine decarboxylase; [6],11.8 + 1.7 nmol CO2 Formed/g tissue/hr
same,Fold increase of ornithine decarboxylase activity over the basal level,"ornithine decarboxylase; 0.1 mg/kg i.p., 3 hours, listed as (-)Isoproterenol",6.2 fold
same,Ornithine decarboxylase activity,ornithine decarboxylase; [7],0.4 ± 0.09 nmol CO2 Formed/g tissue/hr
same,cAMP production after propranolol added during incubation,adenylate cyclase [1],no further cAMP was produced
same,"cAMP production, linearity with time",adenylate cyclase [1],linear through 14 min
same,"Intrinsic Activity, adenylate cyclase",adenylate cyclase [2],1.0
same,EC50,adenylate cyclase [2],226 ± 1.4 nM
same,IC50,"beta-adrenergic receptor [3]; read-out: IC50 (concentration that inhibited CYP binding by 50%), rat reticulocyte membranes, mean ±SE, n = 3-6, 60 min",327 ± 17 nM
CC(C)(Cc1ccc(N)cc1)NCC(O)c1ccc(O)c2[nH]c(=O)ccc12 (stereo not drawn) [Compound 12],"Intrinsic Activity, adenylate cyclase",adenylate cyclase [2],1.0
same,intrinsic activity (efficacy) in words,adenylate cyclase [2],equal to the intrinsic activity (efficacy) of (-)isoproterenol
same,EC50,adenylate cyclase [2],14.2 ± 4.7 nM
same,IC50,beta-adrenergic receptor [3],22 ± 3 nM
CC(C)(Cc1ccc(NC(=O)CBr)cc1)NCC(O)c1ccc(O)c2nc(O)ccc12 (stereo not drawn) [Compound 13],receptor concentration after pretreatment and washout,"beta-adrenergic receptor [4]; 20 nM compound 13, four wash cycles, control 576±22, mean ±SD, n=3",168±15 fmol/mg of protein
same,inhibition at 0.02 µM,"beta-adrenergic receptor [4]; 0.5 h, 20 nM compound 13, four wash cycles, read-out: decrease in the receptor concentration after pretreatment and washout",71%
same,Kd,"beta-adrenergic receptor [4]; compound 13 treated membranes (20 nM), control 13±3, read-out: KD value for (-)-[^125 I]iodocyanopindolol binding to the remaining receptors",0.011 ± 0.002 nM
same,Fold increase of ornithine decarboxylase activity over the basal level,"ornithine decarboxylase; 0.1 mg/kg i.p., 3 hours",4.6 fold
same,Ornithine decarboxylase activity,ornithine decarboxylase; [6],8.7 + 0.5 nmol CO2 Formed/g tissue/hr
same,Ornithine decarboxylase activity,ornithine decarboxylase; [7],0.4 ± 0.06 nmol CO2 Formed/g tissue/hr
same,irreversible binding and response at the beta-adrenergic receptor,adenylate cyclase [1],irreversibly binds to the beta-adrenergic receptor and produces an irreversible response
same,irreversible binding and response at the beta-adrenergic receptor,adenylate cyclase [1]; [8],appears to bind irreversibly to the receptor and produce irreversible agonist effects
same,cAMP production after propranolol added during incubation,adenylate cyclase [1],no change in the rate of cAMP production occurred
same,cAMP production with propranolol added at time 0,adenylate cyclase [1]; propranolol added with structure 13 at time 0,stimulation of cAMP production was blocked
same,"cAMP production, linearity with time",adenylate cyclase [1],linear through 14 min
same,"Intrinsic Activity, adenylate cyclase",adenylate cyclase [2],1.2
same,intrinsic activity (efficacy) in words,adenylate cyclase [2],higher intrinsic activities than (-)isoproterenol
same,EC50,adenylate cyclase [2],8.5 ± 3.5 nM
same,IC50,beta-adrenergic receptor [3],5.3 ± 0.8 nM
same,loss of receptors in words,"[5]; cerebral cortex, 5 mg/kg",no significant loss of receptors
same,Specific Ligand Binding,"[5]; cerebral cortex, 5 mg/kg i.p., control 119 ± 10",114 ± 14 fmol/mg protein
same,loss of receptors in words,"[5]; heart or submaxillary gland, 5 mg/kg vs 2 mg/kg",no further loss of receptors was detected
same,% reduction of receptors from controls,"[5]; heart, 2 mg/kg i.p.",23%
same,Specific Ligand Binding,"[5]; heart, 2 mg/kg i.p., control 22.3 ± 1.0",17.1 ± 0.5 fmol/mg protein
same,% reduction of receptors from controls,"[5]; heart, 5 mg/kg i.p.",15%
same,Specific Ligand Binding,"[5]; heart, 5 mg/kg i.p., control 22.3 ± 1.0",18.9 ± 0.8 fmol/mg protein
same,blood brain barrier penetration,[5]; inferred from lack of receptor loss in cerebral cortex,cannot cross the blood brain barrier
same,% reduction of receptors from controls,"[5]; lung, 2 mg/kg i.p.",52%
same,Specific Ligand Binding,"[5]; lung, 2 mg/kg i.p., control 658 ± 27",318 ± 23 fmol/mg protein
same,% reduction of receptors from controls,"[5]; lung, 5 mg/kg i.p.",75%
same,Specific Ligand Binding,"[5]; lung, 5 mg/kg i.p., control 658 ± 27",166 ± 9 fmol/mg protein
same,beta-2-receptor selectivity in vivo,[5],receptor reductions were mainly due to losses of beta-2 receptors
same,beta-2-receptor selectivity in vivo,[5]; [8],high degree of beta-2-receptor selectivity in vivo
same,% reduction of receptors from controls,"[5]; spleen, 2 mg/kg i.p.",42%
same,Specific Ligand Binding,"[5]; spleen, 2 mg/kg i.p., control 53.2 ± 1.8",31 ± 4 fmol/mg protein
same,% reduction of receptors from controls,"[5]; spleen, 5 mg/kg i.p.",65%
same,Specific Ligand Binding,"[5]; spleen, 5 mg/kg i.p., control 53.2 ± 1.8",19 ± 1.2 fmol/mg protein
same,% reduction of receptors from controls,"[5]; submaxillary gland, 2 mg/kg i.p.",23%
same,Specific Ligand Binding,"[5]; submaxillary gland, 2 mg/kg i.p., control 98 ± 5.8",75 ± 3 fmol/mg protein
same,% reduction of receptors from controls,"[5]; submaxillary gland, 5 mg/kg i.p.",21%
same,Specific Ligand Binding,"[5]; submaxillary gland, 5 mg/kg i.p., control 98 ± 5.8",77 ± 3.7 fmol/mg protein
"CC(C)(C)NCC(O)COc1cccc2c1CC(O)C(O)C2 (stereo not drawn) [nadolol, reference compound]",prevention of loss of specific binding sites by nadolol,beta-adrenergic receptor [4]; nadolol 10 μM in preincubation with compound 13,the loss of specific binding sites was completely prevented
CC(C)NCC(O)COc1cccc2ccccc12 (stereo not drawn) [propranolol],blocking of ornithine decarboxylase induction,ornithine decarboxylase; propranolol 5 mg/kg 30 min before (-)isoproterenol or compound 13,completely blocked
"CC(C)(Cc1ccc(I)cc1)NCC(O)c1ccc(O)c2[nH]c(=O)ccc12 (stereo not drawn) [Compound 11, 5-[2-[[1-(4-Iodophenyl)-2-methylprop-2-yl]amino]-1-hydroxyethyl]-8-hydroxycarbostyril]","Intrinsic Activity, adenylate cyclase",adenylate cyclase [2],1.3
same,intrinsic activity (efficacy) in words,adenylate cyclase [2],higher intrinsic activities than (-)isoproterenol
same,EC50,adenylate cyclase [2],5.6 ± 1.4 nM
same,IC50,beta-adrenergic receptor [3],7.6 ± 1.3 nM
"CC[C@H](NC(C)C)[C@H](O)c1ccc(O)c2[nH]c(=O)ccc12 (relative stereo) [procaterol, erythro-5-(1-hydroxy-2-isopropylaminobutyl)-8-hydroxycarbostyril]",beta-2 agonist and bronchodilator activity in words,beta-2,potent beta-2 agonist and a bronchodilator
